Assay type in all cases: functional
Test [1] deals with Rattus norvegicus. The experiment in a line: Antihypertensive activity determined as percent fall in blood pressure after 2 hr in spontaneously hypertensive rats administered with 10 mg/kg (po).
The subject of test [2] is Rattus norvegicus. The experiment in a line: Antihypertensive activity determined as percent fall in blood pressure after 4 hours in spontaneously hypertensive rats administered with 10 mg/kg, (po).
For test [3], the system named is Rattus norvegicus. The experiment in a line: Antihypertensive activity determined as percent fall in blood pressure after 4 hours in spontaneously hypertensive rats administered with 3 mg/kg, (po).
Test [4] concerns Rattus norvegicus. Put plainly: Antihypertensive activity determined as percent fall in blood pressure after 2 hr in spontaneously hypertensive rats administered with 3 mg/kg (po).

As for `COc1cc2nc(N(C)CCCCN(C)C(=O)c3ccccc3)nc(N)c2cc1OC.Cl`, the Activity in the test on Rattus norvegicus [1] is -21%; with Rattus norvegicus [2], -12%.

Turning to `COc1cc2nc(N(C)CCCNC(=O)C3Cc4ccccc4O3)nc(N)c2cc1OC.Cl` (configuration not stated), the Activity is -22% with Rattus norvegicus [1] and -19% in the test on Rattus norvegicus [2].

As for `COc1cc2nc(N3CCN(C(=O)c4ccco4)CC3)nc(N)c2cc1OC.Cl` [PRAZOSIN HYDROCHLORIDE], the Activity was -37% in the test with Rattus norvegicus [1], -35% with Rattus norvegicus [2], -25% in the test on Rattus norvegicus [3] and -30% in the test on Rattus norvegicus [4].

Regarding `COc1cc2nc(N(C)CCCN(C)C(=O)c3ccccc3)nc(N)c2cc1OC.Cl`, the Activity was -23% in the test with Rattus norvegicus [1] and -15% with Rattus norvegicus [2].

Take `COc1cc2nc(N(C)CCCNC(=O)c3ccccc3)nc(N)c2cc1OC.Cl`: the results for the Activity with Rattus norvegicus [1] and in the test with Rattus norvegicus [2] were -31% and -23%, respectively.

Turning to `COc1cc2nc(N(C)CCCN(C)C(=O)c3nnc(SC)o3)nc(N)c2cc1OC.Cl`, the Activity is reported as -20% in the test with Rattus norvegicus [1] and -6% with Rattus norvegicus [2].

Regarding `COc1cc2nc(N(C)CCCN(C)C(=O)C3CCCO3)nc(N)c2cc1OC.Cl` (configuration not stated), the Activity in the test with Rattus norvegicus [1] was -14%; in the test on Rattus norvegicus [2] it was -7%.

In the case of `COc1cc2nc(N(C)CCCNC(=O)c3ccco3)nc(N)c2cc1OC.Cl`, the Activity is reported as -20% in the test on Rattus norvegicus [1] and -17% in the test on Rattus norvegicus [2].

As to `COc1cc2nc(N(C)CCCNC(=O)C3CCCC3)nc(N)c2cc1OC.Cl`, the Activity in the test on Rattus norvegicus [1] is given as -30%; with Rattus norvegicus [2], -20%.

Consider `COc1cc2nc(N(C)CCCNC(=O)C3CCCO3)nc(N)c2cc1OC.Cl` (configuration not stated) [ALFUZOSIN HYDROCHLORIDE], for which the results for the Activity with Rattus norvegicus [1] and in the test with Rattus norvegicus [2] were -34% and -24%, respectively.

For `COc1cccc(C(=O)N(C)CCCN(C)c2nc(N)c3cc(OC)c(OC)cc3n2)c1.Cl`, the Activity in the test with Rattus norvegicus [1] is on record as -12%; with Rattus norvegicus [2], 0%.

For `CCN(CCCN(CC)c1nc(N)c2cc(OC)c(OC)cc2n1)C(=O)c1ccco1.Cl`, the Activity in the test with Rattus norvegicus [1] is -16%; in the test on Rattus norvegicus [2], -11%.

With `COc1cc2nc(N(C)CCCN(C)C(=O)c3cc(OC)c(OC)c(OC)c3)nc(N)c2cc1OC.Cl`, the Activity in the test on Rattus norvegicus [1] is recorded as -11%; in the test on Rattus norvegicus [2], -6%.

As to `COc1cc2nc(N(C)CCCNC(=O)c3cc4ccccc4o3)nc(N)c2cc1OC.Cl`, the Activity in the test on Rattus norvegicus [1] and with Rattus norvegicus [2] was 0% each time.

As to `COc1cc2nc(N(C)CCN(C)C(=O)c3ccco3)nc(N)c2cc1OC.Cl`, the Activity with Rattus norvegicus [1] and in the test with Rattus norvegicus [2] was 0% in each case.

For `COc1cc2nc(N(C)CCN(C)C(=O)c3ccccc3)nc(N)c2cc1OC`, the Activity in the test on Rattus norvegicus [1] and in the test with Rattus norvegicus [2] was 0% throughout.

Consider `COc1cc2nc(NCCCNC(=O)c3ccccc3)nc(N)c2cc1OC.Cl`, for which the values for the Activity in the test on Rattus norvegicus [1] and in the test on Rattus norvegicus [2] were -9% and -7%, respectively.

`COc1cc2nc(N(C)CCCNC(=O)/C=C/c3ccccc3)nc(N)c2cc1OC.Cl`: the results for the Activity with Rattus norvegicus [1] and with Rattus norvegicus [2] were 0% and 3%, respectively.

As to `COc1cc2nc(N(C)CCCN(C)C(=O)c3cccnc3)nc(N)c2cc1OC.Cl`, the Activity is recorded as -5% in the test on Rattus norvegicus [1] and -9% in the test on Rattus norvegicus [2].

Consider `COc1cc2nc(NCCCN(C)C(=O)C3CCCO3)nc(N)c2cc1OC.Cl` (configuration not stated), for which the results for the Activity in the test on Rattus norvegicus [1] and with Rattus norvegicus [2] were -8% and -6%, respectively.

Take `COc1cc2nc(N(C)CCCN(CC(C)C)C(=O)c3ccccc3)nc(N)c2cc1OC.Cl`: the Activity in the test on Rattus norvegicus [1] came to 0%; in the test with Rattus norvegicus [2], 6%.

As for `CCN(CCCN(CC)c1nc(N)c2cc(OC)c(OC)cc2n1)C(=O)c1ccccc1.Cl`, the Activity with Rattus norvegicus [1] is recorded as -1%; in the test on Rattus norvegicus [2], -5%.

Regarding `COc1cc2nc(N(C)CCCN(C)C(=O)c3cccc(C)c3)nc(N)c2cc1OC.Cl`, the Activity in the test on Rattus norvegicus [1] was -10%; in the test on Rattus norvegicus [2], 0%.

Take `COc1cc2nc(N(C)CCCN(C)C(=O)c3ccco3)nc(N)c2cc1OC.Cl`: the results for the Activity in the test on Rattus norvegicus [1] and in the test with Rattus norvegicus [2] were -24% and -20%, respectively.

For the compound `COc1cc2nc(N(C)CCCNC(=O)C3CCOCC3)nc(N)c2cc1OC`, the results for the Activity with Rattus norvegicus [1] and with Rattus norvegicus [2] were -27% and -7%, respectively.

Take `COc1cc2nc(N(C)CCCNC(=O)C3COc4ccccc4O3)nc(N)c2cc1OC.Cl` (configuration not stated): the Activity in the test with Rattus norvegicus [1] is 2%; in the test on Rattus norvegicus [2], -6%.

As for `COc1cc2nc(N(C)CCCNC(=O)C3CCOC3)nc(N)c2cc1OC.Cl` (configuration not stated), the Activity in the test with Rattus norvegicus [1] is -24%; in the test on Rattus norvegicus [2] it was -10%.

Regarding `COc1cc(OC)cc(C(=O)N(C)CCCN(C)c2nc(N)c3cc(OC)c(OC)cc3n2)c1.Cl`, the results for the Activity in the test on Rattus norvegicus [1] and with Rattus norvegicus [2] were -6% and -2%, respectively.

As to `COc1cc2nc(N(C)CCCNC(=O)C3CC3)nc(N)c2cc1OC.Cl`, the Activity in the test with Rattus norvegicus [1] is on record as -19%; in the test on Rattus norvegicus [2], -12%.

As for `CCN(CCCN(C)C(=O)c1ccccc1)c1nc(N)c2cc(OC)c(OC)cc2n1.Cl`, the results for the Activity in the test on Rattus norvegicus [1] and with Rattus norvegicus [2] were -16% and -12%, respectively.

The values above are taken from ChEMBL document CHEMBL1123205, “Synthesis and antihypertensive activity of a series of 4-amino-6,7-dimethoxyquinazoline derivatives” (1986).
